Test results published in patent publication US20070072815A1, “Methods and kits to increase the efficiency of oligonucleotide-directed nucleic acid sequence alteration” (priority 2004, published 2007).
“And” between values parts separate entries of the source, which are not always exact repeats. Equal values may be shown once.

How the values were obtained:
DLD-1-1 cells = test: BrdU incorporation (actively replicating forks); format: cell-based; settings: 24 hours, 1 mM HU or 3 μM VP16
Description: For cell cycle analysis, 1×10^6 cells are plated 24 hrs before the treatment with drugs and after 24 hrs of treatment, cells are trypsinized, resuspended in 300 μl cold PBS and fixed by adding 700 μl cold ethanol. Cells are then resuspended in 1 ml of PBS containing 500 µg/ml RNaseA and […] propidium iodide and analyzed for DNA content.
The resulting cells are then either analyzed by FACS, or the percentage of cells in S phase is determined by BrdU incorporation. FIG. 8 presents the results of both sets of experiments.
As stated above, the lack of stimulation observed in cells treated with AraC could be explained by the reduced number of cells passing through S phase or the absence of actively replicating forks. If true, we might predict that a rise in the gene repair frequency would appear if the cells are released from the AraC block and replication forks are allowed to restart prior to the electroporation of the oligonucleotide. We test this prediction by treating the cells with AraC for 24 hrs and then releasing them by washing out the drug at specific times. We measure the level of BrdU incorporation at the time of electroporation and evaluate the frequency of correction 48 hrs later.

[1] = tested on: mutant eGFP gene in DLD-1-1 cells; test: eGFP gene correction (oligonucleotide-directed sequence alteration) in DLD-1-1 cells, FACS readout; format: cell-based

SMILES: NC(=O)NO [HU, hydroxyurea]
- percentage of cells in S phase by BrdU (DLD-1-1 cells): 77%
- correction efficiency (frequency of gene repair) ([1]; 1 mM HU 24 hours before electroporation, asynchronous cells): 2.2% and ~3%
- correction efficiency in synchronized cells relative to asynchronous cells ([1]; 1 mM HU or 10 mM thymidine, DTB synchronized vs asynchronous): more than three times
- effect of dose on correction efficiency ([1]; HU 0.3-5 mM or VP16 0.5-10 μM for 24 hours prior to electroporation): increase correction efficiency in a dose-dependent manner
